What was measured:
[1] = for Geometric mean area under the concentration‐time curve: AUC type not specified; for CL/F (apparent clearance): Overall (N = 12), healthy Japanese, arithmetic mean (SD); for AUC0‐∞, healthy Japanese (this study) vs ING114580 / Maximum concentration, healthy Japanese (this study) vs ING114580: greater in healthy Japanese participants
[2] = cited from earlier work; for Maximum concentration: studied as individual components, abacavir 600 mg and lamivudine 300 mg
clinical = details: human, in vivo, po
[3] = cited from earlier work
[4] = system: uridine diphosphate glucuronosyltransferase family 1 member A1 (UGT1A1); details: cited from earlier work
[5] = system: adenosine triphosphate–binding cassette subfamily G transport protein (ABCG2); details: cited from earlier work
[6] = N = 12 healthy Japanese, single oral dose, fasted
[7] = dolutegravir twice‐daily dosing

| Geometric mean CL/F [1, 6] | Geometric mean maximum plasma concentration [1, 6] | Geometric mean area under the concentration‐time curve [1, 6] | CL/F (apparent clearance) ([1]; single oral dose, fasted) | AUC0‐∞, healthy Japanese (this study) vs ING114580 [1] | Maximum concentration, healthy Japanese (this study) vs ING114580 [1] | Cmax (clinical; both) | Tmax (clinical; both) | concentration at 24 h (clinical; both) | CL/F (clinical; female) | Cmax (clinical; female) | Tmax (clinical; female) | concentration at 24 h (clinical; female) | half-life (clinical; female) | CL/F (clinical; male) | Cmax (clinical; male) | Tmax (clinical; male) | concentration at 24 h (clinical; male) | half-life (clinical; male) | Structure (SMILES) | Maximum concentration [2] | further results |
| --- | --- | --- | --- | --- | --- | --- | --- | --- | --- | --- | --- | --- | --- | --- | --- | --- | --- | --- | --- | --- | --- |
| 32.9 L/h | 5.22 µg/mL | 18200 ng·h/mL | 33.7 (8.54) L/h | ≈ 1.3 fold | 1.3 fold | 5380 ng/mL | 1.01 h | 6.75 ng/mL | 10.5 mL/min/kg | 5770 ng/mL | 1.51 h | 6.6 ng/mL | 2.87 h | 9 mL/min/kg | 4600 ng/mL | 0.99 h | 7.1 ng/mL | 2.77 h | Nc1nc(NC2CC2)c2ncn([C@H]3C=C[C@@H](CO)C3)c2n1 [Abacavir, abacavir] | 4.26 ± 1.19 µg/mL | half-life (clinical; both): 2.84 h |
| 0.678 L/h | 4.13 µg/mL | 71600 ng·h/mL | 0.691 (0.145) L/h | – | – | 4210 ng/mL | 3.5 h | 1150 ng/mL | 0.167 mL/min/kg | 4450 ng/mL | 2.98 h | 1130 ng/mL | 13.7 h | 0.167 mL/min/kg | 3750 ng/mL | 4 h | 1180 ng/mL | 14.6 h | C[C@@H]1CCO[C@H]2Cn3cc(C(=O)NCc4ccc(F)cc4F)c(=O)c(O)c3C(=O)N12 [Dolutegravir, dolutegravir] | – | Exposure (geometric mean AUC0‐∞) of dolutegravir vs abacavir and lamivudine [1, 6]: ≈ 4 times; tmax relative to abacavir (times more slowly) [1, 6]: 3 times; Exposure, this study vs ING115381 ([1]; higher than in healthy Japanese participants given dolutegravir 50 mg alone): 1.9 fold; Cmax (geometric mean) [2, 7]: 4150 ng/mL; Geometric mean AUC from time 0 to 24 hours [2, 7]: 75100 ng·h/mL; Increase in dolutegravir exposure with atazanavir (UGT1A1 inhibitor) ([2]; once‐daily dosing with atazanavir): ≈ 2 fold; Exposure in individuals with ABCG2 genetic variant 421AA [3]: demonstrably higher; Exposure increase in UGT1A*6 heterozygous individuals ([3]; evaluation of 9 phase 1/2 clinical studies): ≈ 1.4 fold; Total magnitude of change in exposure from body weight ([3]; population PK models): < 30%; Oral bioavailability, higher in women than men ([3]; population PK): ≈ 21%; Substrate of UGT1A1 [4]: substrate; Substrate of ABCG2 [5]: substrate |
| – | 3.35 µg/mL | 16600 ng·h/mL | – | ≈ 1.3 fold | 1.6 fold | 3430 ng/mL | 2.98 h | 38.7 ng/mL | – | 3650 ng/mL | 2.98 h | 32.6 ng/mL | – | – | 2980 ng/mL | 2.5 h | 50.9 ng/mL | – | Nc1ccn([C@@H]2CS[C@H](CO)O2)c(=O)n1 [Lamivudine, lamivudine] | 2.04 ± 0.54 µg/mL | tmax relative to abacavir (times more slowly) [1, 6]: 3 times; Median tmax, this study vs EPZ104807 ([1]; higher than previously reported in Japanese participants (abacavir/lamivudine formulation)): 1.5 fold |
